The experiment addresses STING (Homo sapiens, UniProt Q86WV6, G230A/H232R/R293Q/R71H). In words: STING reporter assay: THP1-Dual KO-IFNAR2 cells stimulated with 2′3′cGAMP, luciferase reporter activity. It counts as cell-based. The note with it: 15 μM 2′3′cGAMP, 24h. Put shortly: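 THP1-Dual KO-IFNAR2 cells (2×10E6 cells/mL) treated with compounds at 0.0017-100 μM, then stimulated with 2′3′cGAMP (15 μM final) delivered by Lipofectamine 2000; 24 h at 37° C. Supernatant luciferase read by QUANTI-Luc Plus luminescence; EC50 from dose-response.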
For orientation: Reporter assays use an easily measured gene product as a stand-in for the process of interest.

Drawing on patent publication US20230092163A1, “COMPOUNDS AND COMPOSITIONS FOR TREATING CONDITIONS ASSOCIATED WITH STING ACTIVITY” (IFM Due, Inc., priority 2019, published 2023), this text covers EC50 for 40 molecules.

Structures are written as SMILES.

STING, sequence (Q86WV6 whole entry R71H/G230A/H232R/R293Q): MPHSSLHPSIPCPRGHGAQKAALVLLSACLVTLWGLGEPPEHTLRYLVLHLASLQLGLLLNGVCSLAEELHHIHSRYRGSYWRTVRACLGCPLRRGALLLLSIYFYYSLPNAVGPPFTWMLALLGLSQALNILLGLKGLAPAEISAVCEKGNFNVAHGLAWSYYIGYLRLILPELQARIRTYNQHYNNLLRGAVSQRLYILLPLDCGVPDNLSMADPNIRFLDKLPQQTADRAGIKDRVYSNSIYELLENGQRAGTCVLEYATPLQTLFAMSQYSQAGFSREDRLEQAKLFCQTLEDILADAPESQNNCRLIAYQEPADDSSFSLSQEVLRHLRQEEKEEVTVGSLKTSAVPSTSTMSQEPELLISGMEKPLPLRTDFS

Take `Cc1cc2ccc(C(F)(F)F)cc2nc1Nc1ccc2cc[nH]c2c1` [Compound 565]: the EC50 (in general, the concentration at which the effect is half-maximal) (class symbols) lay within 0.2 to 1 µM.
`c1cc2ccc(Nc3ccc4c(n3)CCC4)nc2[nH]1` [Compound 566]: the concentration for a half-maximal effect (EC50) (numeric bounds) was > 30 µM.
Molecule `c1cc2ccc(Nc3ccc4c(n3)CCCC4)cc2[nH]1` [Compound 567, N-(1H-indol-6-yl)-5,6,7,8-tetrahydroquinolin-2-amine] had an EC50 (class symbols) of 5 to 100 µM.
On the same count and under the same terms, the result for `FC(F)(F)c1nc(Nc2cc(Cl)c3cc[nH]c3c2)ccc1Cl` [Compound 568] reads 0.2 to 1 µM.
Turning to `Cc1nc(Nc2ccc3ccn(-c4ccc(OC(C)C)c(C)n4)c3c2)ccc1OC(C)C` [Compound 569, N,1-bis[6-methyl-5-(propan-2-yloxy)pyridin-2-yl]-1H-indol-6-amine], the EC50 (numeric bounds) was > 30 µM.
For the setting “class symbols”, `FC(F)(F)c1cc(Nc2ccc3cc[nH]c3c2)nc(Nc2ccc3cc[nH]c3c2)c1` [Compound 570, N2,N6-bis(1H-indol-6-yl)-4-(trifluoromethyl)pyridine-2,6-diamine] displayed an EC50 of 0.2 to 1 µM.
Still for that read-out and setting: the result for `Cc1nc(Nc2ccc3cc[nH]c3c2)ccc1OC(C)C` [Compound 571, N-[6-methyl-5-(propan-2-yloxy)pyridin-2-yl]-1H-indol-6-amine] reads 1 to 5 µM; that for `O=C(Nc1ccc(C(F)(F)F)cc1)Nc1cc(N2CCCC(Cn3cncn3)C2)c2cc[nH]c2c1` (stereo not shown) [Compound 572], 5 to 100 µM; that for `c1cnc2nc(Nc3ccc4cc[nH]c4c3)ccc2c1` [Compound 573, N-(1H-indol-6-yl)-1,8-naphthyridin-2-amine], 5 to 100 µM.
The same measure, in the same setting: next, `FC(F)(F)c1cccc2nc(Nc3ccc4cc[nH]c4c3)ccc12` [Compound 574, N-(1H-indol-6-yl)-5-(trifluoromethyl)quinolin-2-amine]: 0.2 to 1 µM.
For the molecule `CC(=O)c1ccc2ccc(Nc3ccc4cc[nH]c4c3)nc2c1` [Compound 575, 1-{2-[(1H-indol-6-yl)amino]quinolin-7-yl}ethan-1-one], the half-maximal effective concentration (EC50) (numeric bounds) is > 30 µM.
As for `FC(F)(F)Oc1ccc2c(Cl)cc(Nc3ccc4cc[nH]c4c3)nc2c1` [Compound 576, 4-chloro-N-(1H-indol-6-yl)-7-(trifluoromethoxy)quinolin-2-amine], the EC50 (class symbols) was in the range of 1 to 5 µM.
With `Clc1cc(Cl)c2ccc(Nc3ccc4cc[nH]c4c3)nc2c1` [Compound 577, 5,7-dichloro-N-(1H-indol-6-yl)quinolin-2-amine], the EC50 (class symbols) fell in the range of 0.2 to 1 µM.
Still for that read-out and setting: next, `Cc1cc(Nc2ccc3cc[nH]c3c2)nc(C(F)(F)F)c1` [Compound 578]: 0.2 to 1 µM; `FC(F)(F)c1ccc2ccc(Nc3ccc4cc[nH]c4c3)cc2n1` [Compound 579]: 1 to 5 µM.
On the same count and under the same terms, the result for `Cc1cc2cc[nH]c2cc1Nc1ccc2ccc(C(F)(F)F)cc2n1` [Compound 580, N-(5-methyl-1H-indol-6-yl)-7-(trifluoromethyl)quinolin-2-amine] reads 5 to 100 µM; that for `Clc1ccc(Nc2ccc3cc[nH]c3c2)nc1Nc1ccc2cc[nH]c2c1` [Compound 581, 3-chloro-N2,N6-bis(1H-indol-6-yl)pyridine-2,6-diamine], 5 to 100 µM; that for `N#Cc1cc(Nc2ccc3cc[nH]c3c2)cc(Nc2ccc3cc[nH]c3c2)n1` [Compound 582, 4,6-bis[(1H-indol-6-yl)amino]pyridine-2-carbonitrile], 0.2 to 1 µM.
Still for that read-out and setting: next, `Cc1nc(Nc2ccc3cc[nH]c3c2)ccc1Nc1ccc2cc[nH]c2c1` [Compound 583, N2,N5-bis(1H-indol-6-yl)-6-methylpyridine-2,5-diamine]: 5 to 100 µM.
In the case of `Cc1nc(Nc2ccc3cc[nH]c3c2)ccc1F` [Compound 584, N-(5-fluoro-6-methylpyridin-2-yl)-1H-indol-6-amine], the EC50 (numeric bounds) was > 30 µM.
The same measure, in the same setting: next, `CC1(C)Oc2ccc(Nc3ccc4cc[nH]c4c3)nc2NC1=O` [Compound 585, 6-[(1H-indol-6-yl)amino]-2,2-dimethyl-2H,3H,4H-pyrido[3,2-b][1,4]oxazin-3-one]: > 30 µM.
For the setting “class symbols”, `FC(F)c1ccc2ccc(Nc3ccc4cc[nH]c4c3)nc2c1` [Compound 586, 7-(difluoromethyl)-N-(1H-indol-6-yl)quinolin-2-amine] registered an EC50 of 1 to 5 µM.
Same read-out and setting: next, `COc1ccc2ccc(Nc3ccc4cc[nH]c4c3)nc2c1` [Compound 587, N-(1H-indol-6-yl)-7-methoxyquinolin-2-amine]: 1 to 5 µM; `COc1ccc2c(Cl)cc(Nc3ccc4cc[nH]c4c3)nc2c1` [Compound 588, 4-chloro-N-(1H-indol-6-yl)-7-methoxyquinolin-2-amine]: 1 to 5 µM; `Clc1ccc2ccc(Nc3ccc4cc[nH]c4c3)nc2c1` [Compound 589, 7-chloro-N-(1H-indol-6-yl)quinolin-2-amine]: 0.2 to 1 µM.
Consider `FC(F)(F)c1ccc(Nc2ccc3cc[nH]c3c2)nc1Cl` [Compound 591], for which the EC50 (class symbols) lay in the range of 1 to 5 µM.
Turning to `Cc1ccc2ccc(Nc3ccc4cc[nH]c4c3)nc2c1` [Compound 592], where the note is “class symbols”, the concentration for a half-maximal effect (EC50) fell in the range of 1 to 5 µM.
`Fc1cnc(Nc2ccc3cc[nH]c3c2)cc1Nc1ccc2cc[nH]c2c1` [Compound 593, 5-fluoro-N2,N4-bis(1H-indol-6-yl)pyridine-2,4-diamine] yielded a concentration for a half-maximal effect (EC50) (class symbols) of 1 to 5 µM.
`CCOc1ccc(Nc2ccc3cc[nH]c3c2)nc1C` [Compound 594, N-(5-ethoxy-6-methylpyridin-2-yl)-1H-indol-6-amine]: under “class symbols”, the EC50 lay within 5 to 100 µM.
In turn, `Cc1nc(Nc2ccc3cc[nH]c3c2)ccc1Cl` [Compound 595, N-(5-chloro-6-methylpyridin-2-yl)-1H-indol-6-amine] displayed an EC50 (class symbols) of 5 to 100 µM.
In the case of `O=C1CCc2nc(Nc3ccc4cc[nH]c4c3)ccc21` [Compound 596, 2-[(1H-indol-6-yl)amino]-5H,6H,7H-cyclopenta[b]pyridin-5-one], the EC50 (numeric bounds) was > 30 µM.
The same measure, in the same setting: next, `COC(=O)c1ccc(Nc2ccc3cc[nH]c3c2)nc1OC` [Compound 597]: > 30 µM; `Cc1nc(Nc2ccc3cc[nH]c3c2)ccc1C#N` [Compound 598, 6-((1H-indol-6-yl)amino)-2-methylnicotinonitrile]: > 30 µM; `COc1ccc(Nc2ccc3cc[nH]c3c2)nc1C` [Compound 599, N-(5-methoxy-6-methylpyridin-2-yl)-1H-indol-6-amine]: > 30 µM.
For `c1cc2ccc(Nc3ccc4c(cnn4C4CCCCO4)n3)cc2[nH]1` (stereo not shown) [Compound 600, N-[1-(oxan-2-yl)-1H-pyrazolo[4,3-b]pyridin-5-yl]-1H-indol-6-amine], under “numeric bounds”, the EC50 is > 30 µM.
Same read-out and setting: the result for `COc1ccc(Nc2ccc3cc[nH]c3c2)nc1F` [Compound 601, N-(6-fluoro-5-methoxypyridin-2-yl)-1H-indol-6-amine] reads > 30 µM.
Under “class symbols”, `O=C(Nc1ccc(C(F)(F)F)cc1)Nc1cc(C(=O)OC2CCCC2)c2cc[nH]c2c1` [Compound 602, cyclopentyl 6-(3-(4-(trifluoromethyl)phenyl)ureido)-1H-indole-4-carboxylate] gave a concentration giving a half-maximal response (EC50) of 1 to 5 µM.
Turning to `COc1nc(Nc2ccc3cc[nH]c3c2)ccc1C#N` [Compound 603, 6-[(1H-indol-6-yl)amino]-2-methoxypyridine-3-carbonitrile], the EC50 (numeric bounds) was > 30 µM.
Under “class symbols”, `FC(F)(F)c1ccc2ccc(Nc3cc(Cl)c4cc[nH]c4c3)nc2c1` [Compound 604] came in with an EC50 of 0.2 to 1 µM.
Regarding `CN(c1ccc2cc[nH]c2c1)c1ccc2ccc(C(F)(F)F)cc2n1` [Compound 605, N-(1H-indol-6-yl)-N-methyl-7-(trifluoromethyl)quinolin-2-amine], the concentration giving a half-maximal response (EC50) (class symbols) was 5 to 100 µM.
